What was measured:
[1] = Stability of compounds in simulated gastric and intestinal fluid; assay type: in vitro ADME; settings: Structure (V) examples, Table 3, 3 hr; for % remaining, SGF: simulated gastric fluid; for % remaining, SIF: simulated intestinal fluid
Experimental: (§1) Test compounds were incubated at 1-20 μM in simulated gastric fluid (SGF; standard USP solution with 3 mg/mL pepsin) or simulated intestinal fluid (SIF; standard USP solution with 3 mg/mL pancreatin) for 3 hr or 6 hr. HPLC-UV or HPLC-MS were used to determine test compound levels using peak area %. Results (Table 5) were reported as the percentage of test compound remaining after incubation in a given condition relative to test compound present at t=0 in the same condition.
as §1, with “3” for “3 hr or 6”, “3)” for “5)”

[2] = tested on: uptake of phosphate from the intestine; test: In vivo assay: bolus phosphorus (phosphate) challenge; set-up: species or system Sprague-Dawley rats; settings: Structure (V) examples, Table 4, rat; for Serum increase [Pi] mg/dL from baseline low PI state: mean ± SD
Experimental: By pretreating animals with a low phosphorus diet followed by the subsequent dosing of a phosphorus bolus, serum phosphorus levels were monitored after 30 minutes as a surrogate for intestinal phosphorus absorption. […] The in vivo bolus phosphorus challenge model used here mimics this model in rats.
Male, 7-week-old Sprague-Dawley rats (Charles-River laboratories international, Hollister, Calif.) were allowed to acclimatize for a minimum of 3 days before switching to a synthetic low-phosphorus diet (TD.85010, Harlan Teklad, Madison, Wis.) which contains 0.1% phosphorus and 0.6% calcium. At day 5, testing compounds or vehicle alone (as indicated) were orally administered at the indicated dose in a volume of 5 ml/kg, followed by a bolus gavage of monobasic sodium phosphate (1 mmol in 1 ml) 15 min after compound dosing. Serum was collected via retroorbital bleeding 30 min post phosphate bolus and phosphate levels were determined utilizing an ACE ALERA blood chemistry analyzer (Alfa Wassermann Diagnostic Technologies, West Caldwell, N.J.). […]
Male, 7-week-old Sprague-Dawley rats (Charles-River laboratories international, Hollister, Calif.) were allowed to acclimate for a minimum of 3 days before switching to a synthetic low-phosphorus diet (TD.85010, Harlan Teklad, Madison, Wis.) which contains 0.1% phosphorus and 0.6% calcium. At day 5, testing compounds or vehicle alone (as indicated) were orally administered at the indicated dose in a volume of 5 ml/kg, followed by a bolus gavage of monobasic sodium phosphate (1 mmol in 1 ml) 15 min after compound dosing. Serum was collected via retroorbital bleeding 30 min post phosphate bolus and phosphate levels were determined utilizing an ACE ALERA blood chemistry analyzer (Alfa Wassermann Diagnostic Technologies, West Caldwell, N.J.).
Serum was collected 30 minutes after gavage, and phosphate levels measured. […] The in vivo bolus phosphate challenge model used here mimics this model in rats.
Male, 7-week-old Sprague-Dawley rats (Charles-River laboratories international, Hollister, Calif.) were allowed to acclimatize for a minimum of 3 days before switching to a low-phosphorus diet (TD.85010, Harlan Teklad, Madison, Wis.) which contains 0.1% phosphorus and 0.6% calcium. At day 5, testing compounds or vehicle alone (as indicated) were orally administered at the indicated dose in a volume of 5 ml/kg, followed by a bolus gavage of monobasic sodium phosphate (1 mmol in 1 ml) 15 min after compound dosing. Serum was collected via retroorbital bleeding 30 min post phosphate bolus and serum phosphate levels were determined utilizing an ACE ALERA blood chemistry analyzer (Alfa Wassermann Diagnostic Technologies, West Caldwell, N.J.).
The representative data on effects of test compounds on serum phosphate levels are shown in Table 4 (data are expressed as mean±SD, with 6 animals per data point). The differences between groups were evaluated by one-way analysis of variance with Dunnett's post hoc tests.

[3] = oral 30 mg/kg, vehicle 5.0 ± 1.3

% remaining, SGF [1] | % remaining, SIF [1] | Structure (SMILES) | % Decrease in serum [Pi] ([2]; oral 30 mg/kg) | Serum increase [Pi] mg/dL from baseline low PI state [2, 3] | % Decrease in serum [Pi] ([2]; oral 10 mg/kg) | Serum increase [Pi] mg/dL from baseline low PI state ([2]; oral 10 mg/kg)
21% | 89% | COCCNC(=O)CCSCc1cccc(C(=O)Nc2ccc(N3CCCCC3)cc2C(=O)N/N=C/c2ccc(Cl)c(C(F)(F)F)c2)c1 [Ex. 49, (E)-N-(2-(2-(4-chloro-3-(trifluoromethyl)benzylidene)hydrazinecarbonyl)-4-(piperidin-1-yl)phenyl)-3-((3-(2-methoxyethylamino)-3-oxopropylthio)methyl)benzamide] | 24% | 3.8 ± 0.8 mg/dL | – | –
6% | 107% | O=C(NCCN1CCOCC1)c1cccc(C(=O)Nc2ccc(N3CCCCC3)cc2C(=O)N/N=C/c2ccc(Cl)c(C(F)(F)F)c2)c1 [Ex. 53, (E)-N^1-(2-(2-(4-chloro-3-(trifluoromethyl)benzylidene)hydrazinecarbonyl)-4-(piperidin-1-yl)phenyl)-N3-(2-morpholinoethyl)isophthalamide] | 79% | 1.1 ± 0.8 mg/dL | 62% | 1.9 ± 1.1 mg/dL

Source: patent US20140023611A1 (priority 2010, published 2014)
